# Experiments:
# MEL-JUSO = experiment: cells; format: functional, cell-based; conditions: Homo sapiens;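 also: growth inhibition of human MEL-JUSO cells, read out with a cell viability assay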
# Description: SANGER: Inhibition of human MEL-JUSO cell growth in a cell viability assay.
# HSC-2 = experiment: cells; format: functional, cell-based; conditions: Homo sapiens;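 also: growth inhibition of human HSC-2 cells, read out by a cell viability assay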
# Description: SANGER: Inhibition of human HSC-2 cell growth in a cell viability assay.
# NCI-H2141 = experiment: cells; format: functional, cell-based, Homo sapiens; conditions: Homo sapiens, NCI-H2141;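 also: growth inhibition of human NCI-H2141 cells, read out with a cell viability assay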
# Description: SANGER: Inhibition of human NCI-H2141 cell growth in a cell viability assay.
# UMC-11 = experiment: cells; format: functional, cell-based; conditions: Homo sapiens;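 also: growth inhibition of UMC-11 cells, read out with a cell viability assay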
# Description: SANGER: Inhibition of human UMC-11 cell growth in a cell viability assay.
# OE19 = experiment: cells; format: functional, cell-based; conditions: Homo sapiens;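 also: growth inhibition of OE19 cells, measured through a cell viability read-out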
# Description: SANGER: Inhibition of human OE19 cell growth in a cell viability assay.
# SW780 = experiment: cells; format: functional, cell-based; conditions: Homo sapiens;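 also: growth inhibition of the cells, read out with a cell viability assay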
# Description: SANGER: Inhibition of human SW780 cell growth in a cell viability assay.
# NCI-H1417 = experiment: cells; format: functional, cell-based, Homo sapiens; conditions: Homo sapiens, NCI-H1417;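 also: human NCI-H1417 cells, growth inhibition determined with a cell viability readout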
# Description: SANGER: Inhibition of human NCI-H1417 cell growth in a cell viability assay.
# PC-3 = experiment: cells; format: functional, cell-based; conditions: Homo sapiens;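 also: cell viability assay measuring growth inhibition of PC-3 cells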
# Description: SANGER: Inhibition of human PC-3 cell growth in a cell viability assay.
# NCI-H1437 = experiment: cells; format: functional, cell-based; conditions: Homo sapiens;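 also: growth inhibition of human NCI-H1437 cells, read out by a cell viability assay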
# Description: SANGER: Inhibition of human NCI-H1437 cell growth in a cell viability assay.
# BHT-101 = experiment: cells; format: functional, cell-based; conditions: Homo sapiens
# Description: SANGER: Inhibition of human BHT-101 cell growth in a cell viability assay.
# NUGC-3 = experiment: cells; format: functional, cell-based; conditions: Homo sapiens;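 also: growth inhibition of human NUGC-3 cells, read out with a cell viability assay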
# Description: SANGER: Inhibition of human NUGC-3 cell growth in a cell viability assay.
# KYSE-410 = experiment: cells; format: functional, cell-based; conditions: Homo sapiens;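 also: growth inhibition of KYSE-410 cells, measured through a cell viability readout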
# Description: SANGER: Inhibition of human KYSE-410 cell growth in a cell viability assay.
# 769-P = experiment: cells; format: functional, cell-based; conditions: Homo sapiens
# Description: SANGER: Inhibition of human 769-P cell growth in a cell viability assay.
# KU-19-19 = experiment: cells; format: functional, cell-based; conditions: Homo sapiens
# Description: SANGER: Inhibition of human KU-19-19 cell growth in a cell viability assay.
# NCI-H522 = experiment: cells; format: functional, cell-based; conditions: Homo sapiens;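 also: cell viability assay measuring growth inhibition of human NCI-H522 cells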
# Description: SANGER: Inhibition of human NCI-H522 cell growth in a cell viability assay.
# NALM-6 = experiment: cells; format: functional, cell-based, Homo sapiens; conditions: Homo sapiens, NALM-6;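 also: growth inhibition of NALM-6 cells, read out with a cell viability assay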
# Description: SANGER: Inhibition of human NALM-6 cell growth in a cell viability assay.
# BPH-1 = experiment: cells; format: functional, cell-based; conditions: Homo sapiens;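 also: cell viability assay measuring growth inhibition of human BPH-1 cells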
# Description: SANGER: Inhibition of human BPH-1 cell growth in a cell viability assay.
# COR-L279 = experiment: SANGER: Inhibition of human COR-L279 cell growth in a cell viability assay.; format: functional, cell-based; conditions: Homo sapiens, COR-L279
# TYK-nu = experiment: cells; format: functional, cell-based; conditions: Homo sapiens;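 also: growth inhibition of human TYK-nu cells, read out by a cell viability assay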
# Description: SANGER: Inhibition of human TYK-nu cell growth in a cell viability assay.
# BC-3 = experiment: cells; format: functional, cell-based, Homo sapiens; conditions: Homo sapiens, BC-3;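 also: cell viability assay measuring growth inhibition of human BC-3 cells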
# Description: SANGER: Inhibition of human BC-3 cell growth in a cell viability assay.
# MKN-7 = experiment: cells; format: functional, cell-based; conditions: Homo sapiens;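 also: growth inhibition of MKN-7 cells, read out with a cell viability assay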
# Description: SANGER: Inhibition of human MKN7 cell growth in a cell viability assay.
# SW626 = experiment: cells; format: functional, cell-based; conditions: Homo sapiens;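 also: growth inhibition of SW626 cells, measured with a cell viability assay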
# Description: SANGER: Inhibition of human SW626 cell growth in a cell viability assay.
# DMS-79 = experiment: cells; format: functional, cell-based, Homo sapiens; conditions: Homo sapiens, DMS-79
# Description: SANGER: Inhibition of human DMS-79 cell growth in a cell viability assay.
# NCI-H187 = experiment: cells; format: functional, cell-based, Homo sapiens; conditions: Homo sapiens, NCI-H187;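 also: growth inhibition of NCI-H187 cells, read out as cell viability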
# Description: SANGER: Inhibition of human NCI-H187 cell growth in a cell viability assay.
# T84 = experiment: cells; format: functional, cell-based; conditions: Homo sapiens;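 also: growth inhibition measured with a cell viability readout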
# Description: SANGER: Inhibition of human T84 cell growth in a cell viability assay.
# LC4-1 = experiment: cells; format: functional, cell-based, Homo sapiens; conditions: Homo sapiens, LC4-1;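 also: growth inhibition of LC4-1 cells, read out with a cell viability assay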
# Description: SANGER: Inhibition of human LC4-1 cell growth in a cell viability assay.
# RD = experiment: cells; format: functional, cell-based; conditions: Homo sapiens
# Description: SANGER: Inhibition of human RD cell growth in a cell viability assay.
# SW837 = experiment: cells; format: functional, cell-based; conditions: Homo sapiens;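 also: growth inhibition of SW837 cells, determined with a cell viability assay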
# Description: SANGER: Inhibition of human SW837 cell growth in a cell viability assay.
# Huh-7 = experiment: cells; format: functional, cell-based; conditions: Homo sapiens;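 also: HuH-7 cell growth inhibition, read out with a cell viability assay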
# Description: SANGER: Inhibition of human HuH-7 cell growth in a cell viability assay.
# RMG-I = experiment: cells; format: functional, cell-based; conditions: Homo sapiens;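 also: growth inhibition of human RMG-I cells, read out with a cell viability assay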
# Description: SANGER: Inhibition of human RMG-I cell growth in a cell viability assay.
# OAW-28 = experiment: cells; format: functional, cell-based; conditions: Homo sapiens;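 also: growth inhibition of OAW-28 cells, read out with a cell viability assay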
# Description: SANGER: Inhibition of human OAW-28 cell growth in a cell viability assay.
# WM-115 = experiment: cells; format: functional, cell-based; conditions: Homo sapiens
# Description: SANGER: Inhibition of human WM-115 cell growth in a cell viability assay.
# OPM-2 = experiment: cells; format: functional, cell-based, Homo sapiens; conditions: Homo sapiens, OPM-2;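 also: growth of OPM-2 cells measured with a viability assay, IC50 for suppression of proliferation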
# Description: SANGER: Inhibition of human OPM-2 cell growth in a cell viability assay.
# CAL-72 = experiment: cells; format: functional, cell-based; conditions: Homo sapiens;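 also: cell viability assay measuring inhibition of proliferation in the CAL-72 cell line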
# Description: SANGER: Inhibition of human CAL-72 cell growth in a cell viability assay.
# MDA-MB-231 = experiment: cells; format: functional, cell-based; conditions: Homo sapiens
# Description: SANGER: Inhibition of human MDA-MB-231 cell growth in a cell viability assay.
# K052 = experiment: cells; format: functional, cell-based, Homo sapiens; conditions: Homo sapiens, K052;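 also: Read-out from a cell viability assay, IC50 reflecting suppression of K052 cell growth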
# Description: SANGER: Inhibition of human K052 cell growth in a cell viability assay.
# MeWo = experiment: cells; format: functional, cell-based; conditions: Homo sapiens;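 also: growth inhibition of MeWo cells, determined by a cell viability readout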
# Description: SANGER: Inhibition of human Mewo cell growth in a cell viability assay.
# UACC-812 = experiment: cells; format: functional, cell-based; conditions: Homo sapiens
# Description: SANGER: Inhibition of human UACC-812 cell growth in a cell viability assay.
# NCI-H1694 = experiment: cells; format: functional, cell-based, Homo sapiens; conditions: Homo sapiens, NCI-H1694;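 also: cell viability assay measuring inhibition of growth in human NCI-H1694 cells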
# Description: SANGER: Inhibition of human NCI-H1694 cell growth in a cell viability assay.
# SW1990 = experiment: cells; format: functional, cell-based; conditions: Homo sapiens
# Description: SANGER: Inhibition of human SW1990 cell growth in a cell viability assay.
# NCI-H1755 = experiment: cells; format: functional, cell-based; conditions: Homo sapiens;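 also: cell viability readout used to measure growth inhibition of NCI-H1755 cells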
# Description: SANGER: Inhibition of human NCI-H1755 cell growth in a cell viability assay.
# A2780 = experiment: cells; format: functional, cell-based; conditions: Homo sapiens;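 also: growth inhibition of A2780 cells, read out with a cell viability assay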
# Description: SANGER: Inhibition of human A2780 cell growth in a cell viability assay.
# YT = experiment: cells; format: functional, cell-based, Homo sapiens; conditions: Homo sapiens, YT
# Description: SANGER: Inhibition of human YT cell growth in a cell viability assay.
# SK-N-AS = experiment: cells; format: functional, cell-based; conditions: Homo sapiens;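 also: growth inhibition of human SK-N-AS cells, measured with a cell viability assay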
# Description: SANGER: Inhibition of human SK-N-AS cell growth in a cell viability assay.
# SK-MM-2 = experiment: cells; format: functional, cell-based, Homo sapiens; conditions: Homo sapiens, SK-MM-2;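 also: growth inhibition of human SK-MM-2 cells, read out with a cell viability assay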
# Description: SANGER: Inhibition of human SK-MM-2 cell growth in a cell viability assay.
# RPMI-2650 = experiment: cells; format: functional, cell-based; conditions: Homo sapiens
# Description: SANGER: Inhibition of human RPMI-2650 cell growth in a cell viability assay.
# ST486 = experiment: SANGER: Inhibition of human ST486 cell growth in a cell viability assay.; format: functional, cell-based; conditions: Homo sapiens, ST486
# NCI-H1882 = experiment: cells; format: functional, cell-based, Homo sapiens; conditions: Homo sapiens, NCI-H1882;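 also: growth inhibition of the cell line, determined with a viability assay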
# Description: SANGER: Inhibition of human NCI-H1882 cell growth in a cell viability assay.
# HO-1-N-1 = experiment: cells; format: functional, cell-based; conditions: Homo sapiens;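 also: growth inhibition of human HO-1-N-1 cells, read out with a cell viability assay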
# Description: SANGER: Inhibition of human HO-1-N-1 cell growth in a cell viability assay.
# DBTRG-05MG = experiment: cells; format: functional, cell-based; conditions: Homo sapiens;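 also: cell viability assay measuring growth inhibition of human DBTRG-05MG cells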
# Description: SANGER: Inhibition of human DBTRG-05MG cell growth in a cell viability assay.
# HCC 2998 = experiment: cells; format: functional, cell-based; conditions: Homo sapiens;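 also: growth inhibition of human HCC2998 cells, measured with a cell viability read-out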
# Description: SANGER: Inhibition of human HCC2998 cell growth in a cell viability assay.
# BEN = experiment: cells; format: functional, cell-based; conditions: Homo sapiens;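 also: growth inhibition of the BEN cell line, read out with a cell viability assay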
# Description: SANGER: Inhibition of human BEN cell growth in a cell viability assay.
# TE-15 = experiment: cells; format: functional, cell-based, Homo sapiens; conditions: Homo sapiens, TE-15;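 also: cell viability readout of growth inhibition in TE-15 cells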
# Description: SANGER: Inhibition of human TE-15 cell growth in a cell viability assay.
# P31-FUJ = experiment: cells; format: functional, cell-based, Homo sapiens; conditions: Homo sapiens, P31-FUJ;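 also: growth inhibition of P31-FUJ cells, read out with a viability assay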
# Description: SANGER: Inhibition of human P31-FUJ cell growth in a cell viability assay.
# YKG-1 = experiment: cells; format: functional, cell-based; conditions: Homo sapiens;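 also: cell growth inhibition, read out with a viability assay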
# Description: SANGER: Inhibition of human YKG-1 cell growth in a cell viability assay.
# HuP-T4 = experiment: cells; format: functional, cell-based; conditions: Homo sapiens;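 also: cell viability assay measuring how much HuP-T4 cell growth is inhibited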
# Description: SANGER: Inhibition of human HuP-T4 cell growth in a cell viability assay.
# SW1417 = experiment: cells; format: functional, cell-based; conditions: Homo sapiens;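 also: growth inhibition of human SW1417 cells, read out with a cell viability assay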
# Description: SANGER: Inhibition of human SW1417 cell growth in a cell viability assay.
# SNU-C1 = experiment: cells; format: functional, cell-based, Homo sapiens; conditions: Homo sapiens, SNU-C1;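 also: growth inhibition of SNU-C1 human cells, read out by a cell viability assay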
# Description: SANGER: Inhibition of human SNU-C1 cell growth in a cell viability assay.
# GDM-1 = experiment: cells; format: functional, cell-based, Homo sapiens; conditions: Homo sapiens, GDM-1; read-out: IC50;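 also: cell viability readout used to measure growth inhibition of human GDM-1 cells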
# Description: SANGER: Inhibition of human GDM-1 cell growth in a cell viability assay.
compound,measurement,setting,value
COC(=O)[C@H](CCSC)NC(=O)c1ccc(NC[C@@H](N)CS)cc1-c1ccccc1,IC50,MEL-JUSO,184 nM
same,IC50,HSC-2,> 1020 nM
same,IC50,NCI-H2141,> 1020 nM
same,IC50,UMC-11,> 1020 nM
same,IC50,OE19,> 1020 nM
same,IC50,SW780,> 1020 nM
same,IC50,NCI-H1417,> 1020 nM
same,IC50,PC-3,> 1020 nM
same,IC50,NCI-H1437,> 1020 nM
same,IC50,BHT-101,> 1020 nM
same,IC50,NUGC-3,> 1020 nM
same,IC50,KYSE-410,> 1020 nM
same,IC50,769-P,> 1020 nM
same,IC50,KU-19-19,> 1020 nM
same,IC50,NCI-H522,> 1020 nM
same,IC50,NALM-6,> 1020 nM
same,IC50,BPH-1,> 1020 nM
same,IC50,COR-L279,> 1020 nM
same,IC50,TYK-nu,> 1020 nM
same,IC50,BC-3,> 1020 nM
same,IC50,MKN-7,> 1020 nM
same,IC50,SW626,> 1020 nM
same,IC50,DMS-79,> 1020 nM
same,IC50,NCI-H187,> 1020 nM
same,IC50,T84,> 1020 nM
same,IC50,LC4-1,> 1020 nM
same,IC50,RD,> 1020 nM
same,IC50,SW837,> 1020 nM
same,IC50,Huh-7,> 1020 nM
same,IC50,RMG-I,> 1020 nM
same,IC50,OAW-28,> 1020 nM
same,IC50,WM-115,> 1020 nM
same,IC50,OPM-2,> 1020 nM
same,IC50,CAL-72,> 1020 nM
same,IC50,MDA-MB-231,> 1020 nM
same,IC50,K052,> 1020 nM
same,IC50,MeWo,> 1020 nM
same,IC50,UACC-812,> 1020 nM
same,IC50,NCI-H1694,> 1020 nM
same,IC50,SW1990,> 1020 nM
same,IC50,NCI-H1755,> 1020 nM
same,IC50,A2780,> 1020 nM
same,IC50,YT,> 1020 nM
same,IC50,SK-N-AS,> 1020 nM
same,IC50,SK-MM-2,> 1020 nM
same,IC50,RPMI-2650,> 1020 nM
same,IC50,ST486,> 1020 nM
same,IC50,NCI-H1882,> 1020 nM
same,IC50,HO-1-N-1,> 1020 nM
same,IC50,DBTRG-05MG,> 1020 nM
same,IC50,HCC 2998,> 1020 nM
same,IC50,BEN,> 1020 nM
same,IC50,TE-15,> 1020 nM
same,IC50,P31-FUJ,> 1020 nM
same,IC50,YKG-1,> 1020 nM
same,IC50,HuP-T4,> 1020 nM
same,IC50,SW1417,> 1020 nM
same,IC50,SNU-C1,> 1020 nM
same,IC50,GDM-1,> 1020 nM
